Laboratory results: US11149027B2, “Heterocyclic compound” (Sumitomo Chemical Company, Limited, priority 2016, dated 2021)

Tests used:
[1] = system: houseflies (Musca domestica); assay: Test Example 10: treated filter paper with sucrose, houseflies; assay type: in vivo; conditions: 500 ppm, 0.7 ml on filter paper with sucrose, female adult, after 24 hours
Protocol: (§1) Test compounds are made to a formulation according to a similar method to that described in the Formulation example 5, and thereto is added water to prepare a diluted solution containing a prescribed concentration of the test compound.
A filter paper having a diameter of 5.5 cm in diameter is spread on the bottom of the cup, and 30 mg of sucrose is placed on the filter paper, and then 0.7 ml of the diluted solutions are added dropwise to the filter paper. Ten (10) houseflies (Musca domestica) female adult are released into the cup. After 24 hours, the number of the died insects is counted, and the mortality of insects is calculated by the following equation. Mortality (%)=(Number of died insects/test insects)×100

[2] = system: brown planthoppers (Nilaparvata lugens); assay: Test Example 4: root uptake by rice seedling from diluted solution, brown planthoppers; assay type: in vivo; conditions: 1000 ppm, 5 mL diluted solution under rice seedling, third instar larvae released after 7 days, examined after 6 days
Protocol: as §1
The diluted solution 5 mL is added to one cup, and Rice (Oryza sativa) seedling (on the developmental stage of the second true leaf) is planted in the other cup with a hole on the bottom and the other cup is placed on the cup. After 7 days, 20 brown planthoppers (Nilaparvata lugens) at the third instar larval stage are released onto the seedling. After 6 days, the number of the surviving insects is examined, and the mortality is calculated by the following equation. Mortality (%)={1−Number of surviving insects/20}×100

Row | Structure (SMILES) | mortality of insects [1] [%] | mortality of insects [2] [%]
1 | CCS(=O)(=O)c1cccnc1-c1ccc(-n2ccc(C(F)(F)F)n2)nn1 [compound 2] | 100 | 
2 | CCS(=O)(=O)c1cccnc1-c1ccc(-n2cc(C(F)(F)F)cn2)nn1 [compound 9] | 100 | ≥ 90
3 | CCS(=O)(=O)c1cccnc1-c1ccc(-n2cnc(C(F)(F)F)n2)nn1 [compound 4] | 100 | 
4 | CCS(=O)(=O)c1cccnc1-c1ccc(-n2cnc(C(F)(F)F)c2)nn1 [compound 7] | 100 | 
